The source of these data is patent US10711041B2, “Lyophilisate containing a cyclic peptide of formula X1-[sequence]-X2” (priority 2013, dated 2020).

The experiment deals with donor lung of a pig. In words: Ex vivo lung perfusion (EVLP) of pig donor lungs simulating lung transplantation. As for the experimental part:
Brain-dead pigs were brought into back position and a vertical sternotomy was carried out. The pericardium and both pleural cavities were opened. The lower and upper cavial venes were embraced. An inflow catheter was inserted into the lung artery by means of a purse-string suture in the right ventricular discharging tract. An inflow occlusion was obtained by connecting the lower and upper cavial venes, discharge occlusion by stapling off the aorta. The lungs then were protected by a prophylactic rinsing with cold, isotonic conservation solution (50 ml per kg body weight of the pig, comprising potassium ions, sodium ions, magnesium ions, calcium ions, chloride ions, dextran, glucose, buffer ions) through the inflow catheter. Incision of the left heart tube yields discharge. The lungs were aerated during that time period with 50% oxygen and ice sludge was given into both pleural cavities and into the mediastinum.
The explanation technique in sum was the removal with heart and esophagus according to the following steps: • a) Dissection of the soft tissue bridges to the thoracic cavity at both sides of the trachea. • b) Transsection of both pulmonal ligaments (very deep, difficult exposure), then of VCI, of the low thoracic aorta ascendens, or the esophagus, respectively. • c) Blunt-separation of residual mediastinal adhesions. • d) Entire distension of the donor lung before the tracheal closure with a clip.
After explantation the lungs were winded into gauze, put into an ice bag, filled with low-potassium-dextran-extracellular solution and stored at 4° C. for 18 to 24 hours.
For the ex-vivo lung conditioning the EVLP-technique was used ([…]). […] During the EVLP the lung function may be assessed regularly regarding key indicators. […]
The processing of the donor lung from the pig was started with sewing on a funnel-shaped tube from Silastic with a pressure-monitored catheter, implemented into the left atrial cuff (LA), for openly splinting the LA and for maintaining a closed perfusion circulation. […]

Where [1] appears, read: inhalation 1 mg/kg, vs Water for Injection.

Bridges are numbered along the chain shown (N, C = ends). Where no end group is shown, it is not given here.

As for `C[C@@H]1NC(=O)CNC(=O)[C@H](CCC(=O)O)NC(=O)[C@@H]2CCCN2C(=O)[C@H]([C@@H](C)O)NC(=O)[C@H](CCC(=O)O)NC(=O)[C@H](CCCNC(=N)N)NC(=O)[C@H](CCC(N)=O)NC(=O)CNC(=O)[C@@H](N)CSSC[C@@H](C(=O)O)NC(=O)[C@H](Cc2ccc(O)cc2)NC(=O)[C@H](Cc2c[nH]c3ccccc23)NC(=O)[C@@H]2CCCN2C(=O)[C@H](CCCCN)NC(=O)[C@H](C)NC(=O)[C@H](CCC(=O)O)NC1=O` [SEQ ID NO: 1], under setting [1], the “arterio-venous pO2 difference ΔpO2” value is recorded as “improved” and the “dynamic lung conformity (compliance)” value was “improved”.

For the compound “Cyclo(CGQREAPAGAAAKPWYC) (disulfide 1-17) [SEQ ID NO: 7, reference compound]”, the “effects regarding the lung” value is listed as “no improving effects”.
